For 18 molecules, LDH release cytotoxicity results are on record in the supplement of paper PMC7840683.

Molecules are shown by their SMILES. Where a name gives a salt, the structure may show the parent alone. ± gives the standard deviation of the averaged measurements.

The assay deals with HepaRG. Description: LDH release cytotoxicity, % of total lysis control; higher = more cytotoxic. Conditions: 48 h. The method in brief:
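The CytoTox-ONE kit was used to read LDH in 50 µL spent medium as resorufin fluorescence on a Tecan Safire, with 0.1% Triton X added to total lysis wells. Beforehand, single-lot HepaRG cells on collagen I-coated 96-well plates had been exposed in duplicate for 48 h to eight-point half-log series (top 100 µM) in serum-free induction medium containing 0.5% DMSO. Percent cytotoxicity was normalized against on-plate vehicle and total lysis controls and averaged over duplicates.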

For the molecule `c1cc[n+]2c(c1)-c1cccc[n+]1CC2` [Diquat dibromide monohydrate], the LDH release cytotoxicity is -1.01 ± 0.048% (0.03162 µM); 0.359 ± 1.1% (0.1 µM); 0.818 ± 0.33% (0.3162278 µM); 0.472 ± 0.19% (1 µM); 0.215 ± 0.51% (3.16228 µM); 1.64 ± 0.66% (10 µM). In addition, the LDH release cytotoxicity by setting is: (31.6228 µM) -0.425 ± 0.39%; (100 µM) 2.13 ± 0.58%.
With `COP(=S)(OC)SCn1nnc2ccccc2c1=O` [Azinphos-methyl], the LDH release cytotoxicity by setting is: (0.03162 µM) -0.213 ± 1.2%; (0.1 µM) -0.757 ± 0.34%; (0.3162278 µM) -1.67 ± 0.55%; (1 µM) -2.01 ± 0.72%; (3.16228 µM) -0.975 ± 0.6%; (10 µM) 0.0858 ± 0.12%. Besides, the LDH release cytotoxicity is, setting by setting: (31.6228 µM) -0.844 ± 0.45%; (100 µM) 0.533 ± 0.78%.
Turning to `Clc1ccc(Cl)cc1` [1,4-Dichlorobenzene], the LDH release cytotoxicity runs as follows: (0.03162 µM) -0.401 ± 1.1%; (0.1 µM) -1.22 ± 0.19%; (0.3162278 µM) -1.55 ± 0.4%; (1 µM) -0.354 ± 1.7%; (3.16228 µM) -0.734 ± 0.3%; (10 µM) -0.586 ± 1.3%. For the same molecule, the LDH release cytotoxicity was found to be 0.224 ± 1.5% (31.6228 µM) and 5.07 ± 3.4% (100 µM).
On to `CC1(C)C(C=C(Cl)Cl)C1C(=O)OC(C#N)c1cccc(Oc2ccccc2)c1` (centres undefined) [Cypermethrin], for which the LDH release cytotoxicity is, setting by setting: (0.03162 µM) -0.819 ± 0.38%; (0.1 µM) -1.77 ± 0.13%; (0.3162278 µM) -1.92 ± 0.05%; (1 µM) -2.15 ± 0.89%; (3.16228 µM) -1.45 ± 0.7%; (10 µM) -1.44 ± 0.55%. The LDH release cytotoxicity by setting is: (31.6228 µM) -0.803 ± 0.26%; (100 µM) -0.801 ± 0.4%.
On to `Cc1ccc(C(C)(C)C)c(O)c1` [2-Tert-Butyl-5-methylphenol], for which the LDH release cytotoxicity by setting is: (0.03162 µM) -2.27 ± 0.2%; (0.1 µM) -3.53 ± 0.25%; (0.3162278 µM) -3.17 ± 1.2%; (1 µM) -3.25 ± 0.28%; (3.16228 µM) -3.05 ± 0.58%; (10 µM) -1.24 ± 0.75%. In addition, the LDH release cytotoxicity by setting is: (31.6228 µM) -1.73 ± 0.49%; (100 µM) 1.45 ± 1.3%.
Take `O=C(NC1CN2CCC1CC2)c1ccc2c(c1)OCCO2` (centres undefined): the LDH release cytotoxicity was -2.41 ± 0.21% (0.03162 µM); -1.45 ± 0.99% (0.1 µM); -1.86 ± 0.11% (0.3162278 µM); -1.29 ± 0.88% (1 µM); -1.81 ± 0.071% (3.16228 µM); -1.38 ± 0.38% (10 µM). Besides, the LDH release cytotoxicity was -1.38 ± 0.035% (31.6228 µM) and 0.204 ± 0.59% (100 µM).
Regarding `C=CC(=O)NCNC(=O)C=C` [N,N'-Methylenebisacrylamide], the LDH release cytotoxicity by setting is: (0.03162 µM) -0.744 ± 0.34%; (0.1 µM) -0.797 ± 0.92%; (0.3162278 µM) -0.644 ± 0.19%; (1 µM) -1.4 ± 0.16%; (3.16228 µM) -0.3 ± 1.1%; (10 µM) -0.328 ± 0.92%. Also, the LDH release cytotoxicity reads like this: (31.6228 µM) -0.405 ± 0.65%; (100 µM) 1.88 ± 0.48%.
Regarding `CC=Cc1ccc(O)c(OC)c1` [Isoeugenol], the LDH release cytotoxicity was -2.86 ± 1.2% (0.03162 µM); -2.42 ± 0.51% (0.1 µM); -2.55 ± 0.96% (0.3162278 µM); -3.05 ± 1.7% (1 µM); -2.354 ± 0.0053% (3.16228 µM); -2.16 ± 0.6% (10 µM). Also, the LDH release cytotoxicity (31.6228 µM) is -2.4 ± 0.96% and the LDH release cytotoxicity (100 µM) was -1.84 ± 1.7%.
Take `CC(C)CCCCCCCOC(=O)CCCCC(=O)OCCCCCCCC(C)C` [Diisodecyl hexanedioate]: the LDH release cytotoxicity is -0.938 ± 0.57% (0.03162 µM); -1.86 ± 0.81% (0.1 µM); -1.91 ± 0.57% (0.3162278 µM); -1.58 ± 0.48% (1 µM); -1.63 ± 0.72% (3.16228 µM); -1.13 ± 0.48% (10 µM). Further, the LDH release cytotoxicity by setting is: (31.6228 µM) -0.135 ± 0.66%; (100 µM) 0.966 ± 0.73%.
Regarding `Nc1ccc(S(=O)(=O)c2ccc(N)cc2)cc1` [Dapsone], the LDH release cytotoxicity runs as follows: (0.03162 µM) -1.24 ± 0.6%; (0.1 µM) -0.379 ± 0.2%; (0.3162278 µM) -1.16 ± 0.45%; (1 µM) -0.536 ± 0.3%; (3.16228 µM) 0.1 ± 0.69%; (10 µM) -0.392 ± 0.19%. The LDH release cytotoxicity runs as follows: (31.6228 µM) 0.105 ± 1%; (100 µM) 1.63 ± 0.23%.
`Clc1cccc(Cl)c1` [1,3-Dichlorobenzene]: the LDH release cytotoxicity is, setting by setting: (0.03162 µM) -0.441 ± 1.9%; (0.1 µM) -1.62 ± 0.022%; (0.3162278 µM) -0.906 ± 0.34%; (1 µM) -1.05 ± 0.054%; (3.16228 µM) -1.07 ± 0.023%; (10 µM) 0.199 ± 1.1%. Further, the LDH release cytotoxicity came to 3.191 ± 0.028% (31.6228 µM) and 25.9 ± 0.28% (100 µM).
Consider `Clc1ccccc1Cl` [1,2-Dichlorobenzene], for which the LDH release cytotoxicity is -1.68 ± 0.72% (0.03162 µM); -1.12 ± 0.22% (0.1 µM); -2 ± 0.56% (0.3162278 µM); -1.81 ± 0.094% (1 µM); -1.83 ± 0.1% (3.16228 µM); -1.2 ± 0.57% (10 µM). The LDH release cytotoxicity (31.6228 µM) is -1.06 ± 0.67% and the LDH release cytotoxicity (100 µM) is -0.133 ± 0.15%.
Turning to `CC1C(c2ccc(Cl)cc2)SC(=O)N1C(=O)NC1CCCCC1` (centres undefined) [Hexythiazox], the LDH release cytotoxicity reads like this: (0.03162 µM) -0.985 ± 0.63%; (0.1 µM) -2.1 ± 0.29%; (0.3162278 µM) -1.93 ± 0.23%; (1 µM) -1.79 ± 0.32%; (3.16228 µM) -1.86 ± 0.39%; (10 µM) -2.05 ± 0.75%. In addition, the LDH release cytotoxicity is, setting by setting: (31.6228 µM) 1.36 ± 1.8%; (100 µM) 6.86 ± 1.2%.
`CCCCCCCCCCCO` [1-Undecanol]: the LDH release cytotoxicity reads like this: (0.01581 µM) -2.55 ± 0.72%; (0.05 µM) -3.97 ± 0.19%; (0.1581139 µM) -3.8 ± 1.3%; (0.5 µM) -4.64 ± 0.28%; (1.5811388 µM) -2.84 ± 0.45%; (5 µM) -3.15 ± 0.031%. In addition, the LDH release cytotoxicity runs as follows: (15.8114 µM) -2.96 ± 1.5%; (50 µM) 4.08 ± 2.9%.
As to `CCOP(=S)(OCC)Oc1nc(Cl)c(Cl)cc1Cl` [Chlorpyrifos], the LDH release cytotoxicity reads like this: (0.03162 µM) 0.564 ± 0.48%; (0.1 µM) -0.761 ± 0.45%; (0.3162278 µM) -1.52 ± 0.69%; (1 µM) -1.1 ± 0.089%; (3.16228 µM) -0.11 ± 0.44%; (10 µM) -0.852 ± 0.46%. For the same molecule, the LDH release cytotoxicity is -0.29 ± 0.55% (31.6228 µM) and 0.964 ± 0.32% (100 µM).
`CCO[Si](CCCNC(N)=O)(OCC)OCC` [1-[3-(Triethoxysilyl)propyl]urea]: the LDH release cytotoxicity (0.03162 µM) was -1.05 ± 0.013%; the LDH release cytotoxicity (0.1 µM) was -2.25 ± 0.44%; the LDH release cytotoxicity (0.3162278 µM) was -1.8 ± 0.35%; the LDH release cytotoxicity (1 µM) is -2.22 ± 0.071%; the LDH release cytotoxicity (3.16228 µM) is -2.28 ± 0.25%; the LDH release cytotoxicity (10 µM) was -1.64 ± 0.34%. Besides, the LDH release cytotoxicity runs as follows: (31.6228 µM) -1.55 ± 0.96%; (100 µM) 0.263 ± 0.38%.
On to `Cn1sc(Cl)cc1=O` [5-Chloro-2-methyl-3(2H)-isothiazolone], for which the LDH release cytotoxicity reads like this: (0.03162 µM) -0.707 ± 0.6%; (0.1 µM) -1.2 ± 0.15%; (0.3162278 µM) -0.511 ± 0.28%; (1 µM) -1.23 ± 0.16%; (3.16228 µM) -0.949 ± 0.12%; (10 µM) -0.788 ± 0.64%. Further, the LDH release cytotoxicity reads like this: (31.6228 µM) -1.56 ± 0.12%; (100 µM) -1.76 ± 0.26%.
For `CC(C)NCC(O)c1ccc(O)c(O)c1` (centres undefined) [Isoproterenol hydrochloride], the LDH release cytotoxicity runs as follows: (0.03162 µM) -1.33 ± 0.21%; (0.1 µM) -0.922 ± 5.4%; (0.3162278 µM) 0.959 ± 0.54%; (1 µM) 2.34 ± 1.1%; (3.16228 µM) 2.16 ± 0.62%; (10 µM) -0.0702 ± 0.068%. In addition, the LDH release cytotoxicity (31.6228 µM) is -1.75 ± 0.25% and the LDH release cytotoxicity (100 µM) was -1.61 ± 0.35%.
